From US8088808B2, “Substituted N-phenyl-bipyrrolidine carboxamides and therapeutic use thereof” (Sanofi, priority 2007, dated 2012)
Counter-ions that a name gives are not always drawn.

Experiments:
[1] = tested on: rhesus H3; assay: GTPγS radioligand binding assay (inhibition of rhesus H3 constitutive functional activity in cell membranes); type: biochemical, rhesus monkey (Macaca Mulatta); settings: Table 1; relative to basal level
Method: (§1) Rhesus H3 membranes were prepared from the Flp-In T-REx 293 Cell Line (Invitrogen) stably transfected with pcDNA5/FRT/TO (Invitrogen) containing the rhesus monkey (Macaca Mulatta) 445 amino acid H3 receptor. (Genbank #AY231164). Stably transfected cultures were amplified in tissue culture flasks by standard tissue culture methods and induced to express rhesus H3 by exposure to 500 ng/ml tetracycline (Cellgro) for 24 hours. After induction, cells were dissociated from flasks utilizing Cell Stripper (Cellgro). Cells were centrifuged (1K×g, 5 min) and pellet frozen in an ethanol-dry ice bath to disrupt cell membranes. Frozen cell pellet was re-suspended in 5 mM HEPES (pH 7.4, Invitrogen) at 10 ml/1000 cm2 of harvested cells. The cell suspension was drawn through an 18 gauge needle (2-3×) followed by a 23 gauge needle (2-3×) to further disrupt cell membranes. The cell suspension was centrifuged (40K×g, 30 min). Cell membrane pellet was re-suspended in 5 mM HEPES (pH 7.4, Invitrogen) at a final protein concentration of 10 mg/ml. Rhesus H3 membranes were stored under liquid nitrogen prior to use in [3H]-Methylhistamine and GTPγS radioligand binding assays.

[2] = biological target: rhesus (Macaca Mulatta) H3 receptor (Macaca mulatta, UniProt Q865E1); assay: Rhesus H3 radioligand binding assay ([3H]-Methylhistamine displacement, WGA SPA beads); design: species or system rhesus monkey (Macaca Mulatta)
Method: as §1, with “(Genbank” for “Rhesus H3 membranes were prepared from the Flp-In T-REx 293 Cell Line (Invitrogen) stably transfected with pcDNA5/FRT/TO (Invitrogen) containing the rhesus monkey (Macaca Mulatta) 445 amino acid H3 receptor. (Genbank”
Rhesus H3 radioligand binding assay was performed using rhesus H3 receptor membranes (prepared as described above), [3H]-Methylhistamine (Perkin Elmer) and WGA SPA beads (wheat germ agglutinin scintillation proximity assay) beads (Amersham). The assay was performed in 96-well Opti-Plates (Packard). Each reaction contained 50 μl rhesus H3 membranes (20-30 μg total protein), 50 μl WGA SPA beads (0.1 μg) and 50 μl of 83 Ci/mmol [^3H]-Methylhistamine (final concentration 2 nM) and 50 μl of tested compound. The compounds of this invention and/or vehicle were diluted with binding buffer from 10 mM DMSO stocks. Assay plates were sealed with TopSeal (Perkin Elmer) and mixed on shaker (25° C., 1 hour). Assay plates were read on TopCount scintillation counter (Packard). Results were analyzed by Hill transformation and Ki values were determined by Cheng-Prusoff equation.

[3] = biological target: MCH receptor (Homo sapiens, UniProt Q99705); assay: MCH receptor [125J]-ligand binding filtration assay; settings: 10 μM test compound; percent inhibition of ligand binding
Method: The activity of the compounds of this invention at the MCH receptor site, if any was measured by the procedures as set forth below. • Test Compounds The compounds of this invention were stored in a 96-well microtiter plates (1 μL, 10 mM, 100% DMSO). Each of the test sample was diluted with 249 μL of 100% DMSO (dilution 1:250). […] Blank: Assay buffer containing 0.4% DMSO were transferred to the dilution microtiter plates for blanks • Assay Procedure: The filter plates with […] of 0.5% PEI-solution/well were incubated for 2 hours at room temperature. PEI was removed by vacuum filtration just before pipetting (Univac Polyfiltronic/Whatman). The solution of the compound as prepared above (50 μL), or MCH ([…]) or Puffer/DMSO (positive control) were added to 96-well round bottom microtiter plate. Then 50 μl of [^125J]-ligand solution was added followed by 100 μl of membrane suspension. The plates were closed with the lids, and incubated for 60 min. at 25° C. The samples were transferred to GF/B filter plate. The reaction mixture was removed by vacuum filtration, washed 4× with 300 μL ice-cold washing buffer and the washing solution was removed by vacuum filtration. The rubber layer at the bottom of the plate was then removed and the filters were dried over night at room temperature. 25 μL of scintillation cocktail was added and the plates were sealed and, plate frames were added and incubated for 1 hour at room temperature. The radioactivity was then measured, settings ^125J standard, 30 sec./well.

[4] = Table 1, [3H]-Methylhistamine 2 nM, Cheng-Prusoff
[5] = Table 2, procedure of Example 42

Chain of rhesus (Macaca Mulatta) H3 receptor (Q865E1 1-445): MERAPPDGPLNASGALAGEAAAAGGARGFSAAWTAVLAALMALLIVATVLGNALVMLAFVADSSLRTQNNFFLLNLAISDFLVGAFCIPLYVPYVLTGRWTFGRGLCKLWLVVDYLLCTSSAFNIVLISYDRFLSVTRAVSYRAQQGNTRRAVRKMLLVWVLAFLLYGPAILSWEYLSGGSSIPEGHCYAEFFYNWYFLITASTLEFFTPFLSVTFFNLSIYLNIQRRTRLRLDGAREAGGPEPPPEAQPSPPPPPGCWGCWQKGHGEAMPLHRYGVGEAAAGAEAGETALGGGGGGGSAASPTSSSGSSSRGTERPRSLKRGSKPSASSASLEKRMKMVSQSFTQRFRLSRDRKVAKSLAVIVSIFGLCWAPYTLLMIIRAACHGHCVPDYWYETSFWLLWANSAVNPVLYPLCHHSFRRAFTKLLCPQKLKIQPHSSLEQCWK
Chain of MCH receptor (Q99705 whole entry): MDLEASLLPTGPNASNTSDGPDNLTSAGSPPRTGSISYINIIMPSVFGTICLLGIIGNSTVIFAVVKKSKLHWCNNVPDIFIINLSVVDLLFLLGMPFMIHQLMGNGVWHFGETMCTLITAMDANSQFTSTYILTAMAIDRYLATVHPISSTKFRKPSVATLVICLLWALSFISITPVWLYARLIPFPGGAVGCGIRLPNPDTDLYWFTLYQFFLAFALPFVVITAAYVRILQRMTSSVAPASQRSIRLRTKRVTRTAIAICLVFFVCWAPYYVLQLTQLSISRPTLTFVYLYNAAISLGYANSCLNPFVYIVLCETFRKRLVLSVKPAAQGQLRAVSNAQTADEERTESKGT

Cc1cc(N2CC[C@H](N3CCC[C@@H]3C)C2)ccc1NC(=O)c1ccoc1 [Example 6, Furan-3-carboxylic acid [2-methyl-4-(2S-methyl-[1,3′S]bipyrrolidinyl-1′-yl)-phenyl]-amide trifluoro-acetate]
Inverse Agonism: % inhibition of Basal GTPγS binding in Rhesus H3 [1]: −17% | Ki [2, 4]: 1.8 nM | Ki [2, 5]: 1.8 nM | inhibition at 10 µM [3]: -6.9%

Cc1noc(C)c1C(=O)Nc1ccc(N2CCC(N3CCCC3C)C2)cc1 (centres unmarked) [Example 26, 3,5-Dimethyl-isoxazole-4-carboxylic acid [4-(2-methyl-[1,3′]bipyrrolidinyl-1′-yl)-phenyl]-amide trifluoroacetate]
Ki [2, 5]: 2.1 nM | inhibition at 10 µM [3]: 9.4%

Cc1cc(NC(=O)C2C(C)(C)C2(C)C)ccc1N1CCC(N2CCCC2C)C1 (centres unmarked) [Example 27, 2,2,3,3-Tetramethyl-cyclopropanecarboxylic acid [3-methyl-4-(2-methyl-[1,3′]bipyrrolidinyl-1′-yl)-phenyl]-amide trifluoroacetate]
Ki [2, 5]: 65.5 nM | inhibition at 10 µM [3]: 36%

Cc1nc(C(=O)Nc2ccc(N3CC[C@H](N4CCC[C@@H]4C)C3)cc2C)co1 [Example 28, 2-Methyl-oxazole-4-carboxylic acid [2-methyl-4-(2(S)-methyl-[1,3′(S)]bipyrrolidinyl-1′-yl)-phenyl]-amide trifluoroacetate]
Ki [2, 5]: 4.6 nM | inhibition at 10 µM [3]: 7%

CC1CCCN1C1CCN(c2ccc(NC(=O)C3C[C@@H]4CC[C@H]3C4)cc2)C1 (stereo partly drawn) [Example 29, (1S,4R)-Bicyclo[2.2.1]heptane-2-carboxylic acid [4-(2-methyl-[1,3′]bipyrrolidinyl-1′-yl)-phenyl]-amide trifluoroacetate]
Ki [2, 5]: 15.7 nM | inhibition at 10 µM [3]: 11.4%

CC1CCCN1C1CCN(c2ccc(NC(=O)C3CC3)c(C(F)(F)F)c2)C1 (centres unmarked) [Example 30, Cyclopropanecarboxylic acid [4-(2-methyl-[1,3′]bipyrrolidinyl-1′-yl)-2-trifluoromethyl-phenyl]-amide trifluoroacetate]
Ki [2, 5]: 14.7 nM | inhibition at 10 µM [3]: 1.2%

Cc1cc(C(=O)Nc2ccc(N3CCC(N4CCCC4C)C3)cc2)n[nH]1 (centres unmarked) [Example 31, 5-Methyl-1H-pyrazole-3-carboxylic acid [4-(2-methyl-[1,3′]bipyrrolidinyl-1′-yl)-phenyl]-amide trifluoroacetate]
Ki [2, 5]: 44.5 nM | inhibition at 10 µM [3]: 30.5%

Cc1cc(N2CCC(N3CCCC3C)C2)ccc1NC(=O)c1ccc(-n2ccccc2=O)o1 (centres unmarked) [Example 32, 5-(2-Oxo-2H-pyridin-1-yl)-furan-2-carboxylic acid [2-methyl-4-(2-methyl-[1,3]bipyrrolidinyl-1′-yl)-phenyl]-amide]
Ki [2, 5]: 33.3 nM | inhibition at 10 µM [3]: 10.9%

Cc1cc(N2CCC(N3CCCC3C)C2)ccc1NC(=O)c1cn[nH]c1 (centres unmarked) [Example 33, 1H-Pyrazole-4-carboxylic acid [2-methyl-4-(2-methyl-[1,3′]bipyrrolidinyl-1′-yl)-phenyl]-amide trifluoroacetate]
Ki [2, 5]: 24.7 nM | inhibition at 10 µM [3]: 9.7%

Cc1cc(NC(=O)c2cn[nH]c2)ccc1N1CCC(N2CCCC2C)C1 (centres unmarked) [Example 34, 1H-Pyrazole-4-carboxylic acid [3-methyl-4-(2-methyl-[1,3′]bipyrrolidinyl-1′-yl)-phenyl]-amide trifluoroacetate]
Ki [2, 5]: 126 nM | inhibition at 10 µM [3]: 16.8%

Cc1cc(C(=O)Nc2ccc(N3CCC(N4CCCC4C)C3)cc2C(F)(F)F)n[nH]1 (centres unmarked) [Example 35, 5-Methyl-1H-pyrazole-3-carboxylic acid [4-(2-methyl-[1,3′]bipyrrolidinyl-1′-yl)-2-trifluoromethyl-phenyl]-amide trifluoroacetate]
Ki [2, 5]: 307 nM | inhibition at 10 µM [3]: 23.5%

CC1CCCN1C1CCN(c2ccc(NC(=O)CC3CCCC3)cc2)C1 (centres unmarked) [Example 36, 2-Cyclopentyl-N-[4-(2-methyl-[1,3′]bipyrrolidinyl-1′-yl)-phenyl]-acetamide trifluoroacetate]
Inverse Agonism: % inhibition of Basal GTPγS binding in Rhesus H3 [1]: −33% | Ki [2, 4]: 3.14 nM | Ki [2, 5]: 3.1 nM | inhibition at 10 µM [3]: 0.7%

Cc1cc(N2CCC(N3CCCC3C)C2)ccc1NC(=O)c1cc(-c2ccncc2)n[nH]1 (centres unmarked) [Example 37, 5-Pyridin-4-yl-2H-pyrazole-3-carboxylic acid [2-methyl-4-(2-methyl-[1,3′]bipyrrolidinyl-1′-yl)-phenyl]-amide trifluoroacetate]
Ki [2, 5]: 14.2 nM | inhibition at 10 µM [3]: 34.4%

Cc1cc(NC(=O)CC2CCCC2)ccc1N1CCC(N2CCCC2C)C1 (centres unmarked) [Example 38, 2-Cyclopentyl-N-[3-methyl-4-(2-methyl-[1,3′]bipyrrolidinyl-1′-yl)-phenyl]-acetamide trifluoroacetate]
Ki [2, 5]: 10.7 nM | inhibition at 10 µM [3]: 3.7%

Cc1cc(N2CC[C@H](N3CCC[C@@H]3C)C2)ccc1NC(=O)C1CCCC1 [Example 39, Cyclopentane carboxylic acid [2-methyl-4-(2(S)-methyl-[1,3′ (S)]bipyrrolidinyl-1′-yl)-phenyl]-amide trifluoroacetate]
Ki [2, 5]: 0.5 nM | inhibition at 10 µM [3]: -7.2%

CC1CCCN1C1CCN(c2ccc(NC(=O)C3CC3)cc2)C1 (centres unmarked) [Example 40, Cyclopropanecarboxylic acid [4-(2-methyl-[1,3′]bipyrrolidinyl-1′-yl)-phenyl]-amide trifluoroacetate]
Ki [2, 5]: 9.7 nM | inhibition at 10 µM [3]: -3.4%

Cc1cc(NC(=O)C2CC2)ccc1N1CCC(N2CCCC2C)C1 (centres unmarked) [Example 41, Cyclopropanecarboxylic acid [3-methyl-4-(2-methyl[1,3′]bipyrrolidinyl-1′-yl)-phenyl]-amide trifluoroacetate]
Ki [2, 5]: 17.7 nM | inhibition at 10 µM [3]: -1.3%
